A short description of one series: in vitro. The note with it: human, Caco-2, pH 7.4.
The target in another series is A2A receptor (Homo sapiens, UniProt P29274). Put plainly: Inhibition of cAMP production in HEK cells. The format is cell-based. The note with it: HEK-293 cells with A2A receptor. The protocol:
When the A2A receptor is activated, is induces the production of cAMP.
HEK-293 cells with a stable transfection of A2A receptor were bought from PerkinElmer® (# ES-011-C). […] Fresh media without the selection marker was added on the day immediately before the experiment to stop selection pressure.
Stimulation buffer b) mimics the human situation by increasing the amount of albumin present in the assay.
Compounds of the present invention were diluted 100× in either of the buffers depending on the assay performed. […] The total volume of the reaction was 20 μl (10 μl of cells, 5 μl of antagonist and 5 μl of agonist). The reaction was finalized by adding 10 μl of 4× EU-cAMP tracer working solution and 10 μl of 4× ULight-anti-cAMP working solution. The TR-FRET signal was measured after 1 hour using a Spectramax Paradigm (Molecular Devices).
(Changes in cAMP serve as a functional read-out for many G protein-coupled receptors.)

The mark [1] stands for this setting: IC50 (nM) (3 nM NECA as agonist, 0.1% BSA), 3 nM NECA as agonist, 0.1% BSA.
Where [2] appears, read: IC50 (nM) (5 μM Adenosine as agonist, 2.0% HSA), 5 μM Adenosine as agonist, 2.0% HSA.
Where [3] appears, read: IC50 (nM) (5 nM NECA as agonist, 2% HSA), 5 nM NECA as agonist, 2% HSA.

Chain of A2A receptor (P29274 whole entry): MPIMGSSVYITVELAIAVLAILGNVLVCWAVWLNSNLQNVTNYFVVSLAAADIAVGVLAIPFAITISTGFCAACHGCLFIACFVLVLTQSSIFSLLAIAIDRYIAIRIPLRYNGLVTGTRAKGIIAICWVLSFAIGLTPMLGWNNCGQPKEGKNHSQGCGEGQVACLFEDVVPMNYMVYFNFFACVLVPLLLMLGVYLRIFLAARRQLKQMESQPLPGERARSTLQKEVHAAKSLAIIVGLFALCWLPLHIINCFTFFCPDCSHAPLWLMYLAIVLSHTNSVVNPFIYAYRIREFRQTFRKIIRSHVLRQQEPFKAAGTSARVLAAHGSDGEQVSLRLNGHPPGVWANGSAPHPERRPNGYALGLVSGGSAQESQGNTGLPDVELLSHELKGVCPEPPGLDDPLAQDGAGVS

In general, efflux ratio refers to the permeability from basolateral to apical divided by that in the opposite direction, in the common usage. As a reminder, the IC50 is the midpoint of a concentration-inhibition curve. A low value points to greater potency. For `Nc1nc2c(sc(=O)n2CCN2CCN(c3cc(O[C@@H]4CNC[C@H]4F)c(F)cc3F)CC2)c2nc(-c3ccco3)nn12` (stereo in doubt) [Compound 91, 5-amino-3-(2-(4-(2,4-difluoro-5-(((3R,4R)-4-fluoropyrrolidin-3-yl)oxy)phenyl)piperazin-1-yl)ethyl)-8-(furan-2-yl)thiazolo[5,4-e][1,2,4]triazolo[1,5-c]pyrimidin-2(3H)-one], the efflux ratio at 120 min, 2 μM in the series “in vitro” was determined as 195. Besides, the results for the IC50 at A2A receptor (setting [1]) and on A2A receptor (setting [2]) were 0.8 nM and 168 nM, respectively.
Take `Nc1nc2c(sc(=O)n2CCN2CCN(c3ccc(OCCO)cc3)CC2)c2nc(-c3ccco3)nn12` [Compound 9, 5-amino-8-(furan-2-yl)-3-(2-(4-(4-(2-hydroxyethoxy)phenyl)piperazin-1-yl)ethyl)thiazolo[5,4-e][1,2,4]triazolo[1,5-c]pyrimidin-2(3H)-one]: the efflux ratio at 120 min, 2 μM in the series “in vitro” is 8. The compound also displayed an IC50 at A2A receptor (setting [1]) of 3.4 nM.
For `Nc1nc2c(sc(=O)n2CCN2CCN(c3ccc(OCC(=O)O)cc3)CC2)c2nc(-c3ccco3)nn12` [Compound 10, 2-(4-(4-(2-(5-amino-8-(furan-2-yl)-2-oxothiazolo[5,4-e][1,2,4]triazolo[1,5-c]pyrimidin-3(2H)-yl)ethyl)piperazin-1-yl)phenoxy)acetic acid], the efflux ratio at 120 min, 2 μM in “in vitro” is 24. For the same compound, the results for the IC50 on A2A receptor (setting [1]), at A2A receptor (setting [3]) and on A2A receptor (setting [2]) were 2.3 nM, 14 nM and 607 nM, respectively.
`Nc1nc2c(sc(=O)n2CCN2CCN(c3ccc(OCC(=O)N4CCNCC4)cc3F)CC2)c2nc(-c3ccco3)nn12` [Compound 24, 5-amino-3-(2-(4-(2-fluoro-4-(2-oxo-2-(piperazin-1-yl)ethoxy)phenyl)piperazin-1-yl)ethyl)-8-(furan-2-yl)thiazolo[5,4-e][1,2,4]triazolo[1,5-c]pyrimidin-2(3H)-one]: the efflux ratio at 120 min, 2 μM in the series “in vitro” came out at 117. In addition, the figures for the IC50 at A2A receptor (setting [1]), at A2A receptor (setting [3]) and at A2A receptor (setting [2]) were 0.8 nM, 2 nM and 137 nM, respectively.
Taken in the same sequence, the figures for `Nc1nc2c(sc(=O)n2CCN2CCN(c3ccc(OCC4CCNCC4)cc3F)CC2)c2nc(-c3ccco3)nn12` [Compound 25, 5-amino-3-(2-(4-(2-fluoro-4-(piperidin-4-ylmethoxy)phenyl)piperazin-1-yl)ethyl)-8-(furan-2-yl)thiazolo[5,4-e][1,2,4]triazolo[1,5-c]pyrimidin-2(3H)-one] were 472, 1.2 nM, 6 nM and 300 nM.
For the compound `Nc1nc2c(sc(=O)n2CCN2CCN(c3ccc(OCCN4CCNCC4)cc3F)CC2)c2nc(-c3ccco3)nn12` [Compound 27, 5-amino-3-(2-(4-(2-fluoro-4-(2-(piperazin-1-yl)ethoxy)phenyl)piperazin-1-yl)ethyl)-8-(furan-2-yl)thiazolo[5,4-e][1,2,4]triazolo[1,5-c]pyrimidin-2(3H)-one], in “in vitro”, the efflux ratio at 120 min, 2 μM turned out to be 187. The 50% inhibitory concentration (IC50) at A2A receptor (setting [1]) was 0.3 nM; on A2A receptor (setting [3]) it was 2 nM; on A2A receptor (setting [2]), 112 nM.
For the compound `NCCNC(=O)c1ccc(N2CCN(CCn3c(=O)sc4c3nc(N)n3nc(-c5ccco5)nc43)CC2)c(F)c1` [Compound 30, 4-(4-(2-(5-amino-8-(furan-2-yl)-2-oxothiazolo[5,4-e][1,2,4]triazolo[1,5-c]pyrimidin-3(2H)-yl)ethyl)piperazin-1-yl)-N-(2-aminoethyl)-3-fluorobenzamide], in “in vitro”, the efflux ratio at 120 min, 2 μM was found to be 3. The half-maximal inhibitory concentration (IC50) is 0.4 nM on A2A receptor (setting [1]), 1 nM on A2A receptor (setting [3]) and 42 nM at A2A receptor (setting [2]).
Take `Nc1nc2c(sc(=O)n2CCN2CCN(c3ccc(C(=O)NCC(O)CO)cc3F)CC2)c2nc(-c3ccco3)nn12` (stereo not shown) [Compound 34, 4-(4-(2-(5-amino-8-(furan-2-yl)-2-oxothiazolo[5,4-e][1,2,4]triazolo[1,5-c]pyrimidin-3(2H)-yl)ethyl)piperazin-1-yl)-N-(2,3-dihydroxypropyl)-3-fluorobenzamide]: the efflux ratio at 120 min, 2 μM in the series “in vitro” worked out at 192. Besides, the IC50 on A2A receptor (setting [1]) is 0.3 nM; on A2A receptor (setting [3]), 6 nM; at A2A receptor (setting [2]), 207 nM.
For `Nc1nc2c(sc(=O)n2CCN2CCN(c3ccc(CCC(=O)O)cc3F)CC2)c2nc(-c3ccco3)nn12` [Compound 40, 3-(4-(4-(2-(5-amino-8-(furan-2-yl)-2-oxothiazolo[5,4-e][1,2,4]triazolo[1,5-c]pyrimidin-3(2H)-yl)ethyl)piperazin-1-yl)-3-fluorophenyl)propanoic acid], in the series “in vitro”, the efflux ratio at 120 min, 2 μM is 25. Further, the IC50 worked out at 0.7 nM at A2A receptor (setting [1]), 7 nM at A2A receptor (setting [3]) and 261 nM on A2A receptor (setting [2]).
As to `NC(=O)CNCCOc1ccc(N2CCN(CCn3c(=O)sc4c3nc(N)n3nc(-c5ccco5)nc43)CC2)c(F)c1` [Compound 45, 2-((2-(4-(4-(2-(5-amino-8-(furan-2-yl)-2-oxothiazolo[5,4-e][1,2,4]triazolo[1,5-c]pyrimidin-3(2H)-yl)ethyl)piperazin-1-yl)-3-fluorophenoxy)ethyl)amino)acetamide], the efflux ratio at 120 min, 2 μM in the series “in vitro” worked out at 41. Further, the half-inhibitory concentration (IC50) amounted to 0.8 nM on A2A receptor (setting [1]), 3 nM on A2A receptor (setting [3]) and 100 nM on A2A receptor (setting [2]).
`Nc1nc2c(sc(=O)n2CCN2CCN(c3ccc(OC4CCNCC4)cc3F)CC2)c2nc(-c3ccco3)nn12` [Compound 47, 5-amino-3-(2-(4-(2-fluoro-4-(piperidin-4-yloxy)phenyl)piperazin-1-yl)ethyl)-8-(furan-2-yl)thiazolo[5,4-e][1,2,4]triazolo[1,5-c]pyrimidin-2(3H)-one]: the efflux ratio at 120 min, 2 μM in “in vitro” was 329. Moreover, the IC50 at A2A receptor (setting [1]) came out at 1.8 nM; at A2A receptor (setting [3]), 1 nM; at A2A receptor (setting [2]), 43 nM.
In the case of `Nc1nc2c(sc(=O)n2CCN2CCN(c3ccc(OC4CCNC4)cc3F)CC2)c2nc(-c3ccco3)nn12` (stereo not shown) [Compound 48, 5-amino-3-(2-(4-(2-fluoro-4-(pyrrolidin-3-yloxy)phenyl)piperazin-1-yl)ethyl)-8-(furan-2-yl)thiazolo[5,4-e][1,2,4]triazolo[1,5-c]pyrimidin-2(3H)-one], the efflux ratio at 120 min, 2 μM in “in vitro” was 166. The IC50 at A2A receptor (setting [1]) is 0.1 nM; on A2A receptor (setting [2]) it was 9 nM.
On the same counts, the results for `CN(C)CCNC(=O)COc1ccc(N2CCN(CCn3c(=O)sc4c3nc(N)n3nc(-c5ccco5)nc43)CC2)c(F)c1` [Compound 51, 2-(4-(4-(2-(5-amino-8-(furan-2-yl)-2-oxothiazolo[5,4-e][1,2,4]triazolo[1,5-c]pyrimidin-3(2H)-yl)ethyl)piperazin-1-yl)-3-fluorophenoxy)-N-(2-(dimethylamino)ethyl)acetamide] are 469, 0.3 nM and 16 nM.
Turning to `NCCNC(=O)COc1ccc(N2CCN(CCn3c(=O)sc4c3nc(N)n3nc(-c5ccco5)nc43)CC2)c(F)c1` [Compound 52, 2-(4-(4-(2-(5-amino-8-(furan-2-yl)-2-oxothiazolo[5,4-e][1,2,4]triazolo[1,5-c]pyrimidin-3(2H)-yl)ethyl)piperazin-1-yl)-3-fluorophenoxy)-N-(2-aminoethyl)acetamide], the efflux ratio at 120 min, 2 μM in the series “in vitro” worked out at 34. The IC50 at A2A receptor (setting [1]) stood at 0.3 nM; on A2A receptor (setting [3]), 1 nM; at A2A receptor (setting [2]) it was 26 nM.
Consider `NC(=O)COc1ccc(N2CCN(CCn3c(=O)sc4c3nc(N)n3nc(-c5ccco5)nc43)CC2)c(F)c1` [Compound 54, 2-(4-(4-(2-(5-amino-8-(furan-2-yl)-2-oxothiazolo[5,4-e][1,2,4]triazolo[1,5-c]pyrimidin-3(2H)-yl)ethyl)piperazin-1-yl)-3-fluorophenoxy)acetamide], for which, in the series “in vitro”, the efflux ratio at 120 min, 2 μM came to 24. The IC50 on A2A receptor (setting [1]) is 0.8 nM; at A2A receptor (setting [3]), 3 nM; at A2A receptor (setting [2]), 138 nM.
Take `CNCCN(C)C(=O)c1ccc(N2CCN(CCn3c(=O)sc4c3nc(N)n3nc(-c5ccco5)nc43)CC2)c(F)c1` [Compound 55, 4-(4-(2-(5-amino-8-(furan-2-yl)-2-oxothiazolo[5,4-e][1,2,4]triazolo[1,5-c]pyrimidin-3(2H)-yl)ethyl)piperazin-1-yl)-3-fluoro-N-methyl-N-(2-(methylamino)ethyl)benzamide]: the efflux ratio at 120 min, 2 μM in “in vitro” was 205. Also, the IC50 at A2A receptor (setting [1]) is 1 nM; at A2A receptor (setting [3]) it was 2 nM; at A2A receptor (setting [2]), 141 nM.
Take `CN(C)CCN(C)C(=O)c1ccc(N2CCN(CCn3c(=O)sc4c3nc(N)n3nc(-c5ccco5)nc43)CC2)c(F)c1` [Compound 56, 4-(4-(2-(5-amino-8-(furan-2-yl)-2-oxothiazolo[5,4-e][1,2,4]triazolo[1,5-c]pyrimidin-3(2H)-yl)ethyl)piperazin-1-yl)-N-(2-(dimethylamino)ethyl)-3-fluoro-N-methylbenzamide]: in the series “in vitro”, the efflux ratio at 120 min, 2 μM came to 1750. Besides, the figures for the IC50 at A2A receptor (setting [1]), at A2A receptor (setting [3]) and on A2A receptor (setting [2]) were 0.2 nM, 1 nM and 25 nM, respectively.
In the case of `C[C@H](CN(C)C)NC(=O)c1ccc(N2CCN(CCn3c(=O)sc4c3nc(N)n3nc(-c5ccco5)nc43)CC2)c(F)c1` [Compound 57, (R)-4-(4-(2-(5-amino-8-(furan-2-yl)-2-oxothiazolo[5,4-e][1,2,4]triazolo[1,5-c]pyrimidin-3(2H)-yl)ethyl)piperazin-1-yl)-N-(1-(dimethylamino)propan-2-yl)-3-fluorobenzamide], the efflux ratio at 120 min, 2 μM in “in vitro” was found to be 2200. Further, the IC50 at A2A receptor (setting [1]) worked out at 0.2 nM; on A2A receptor (setting [3]) it was 2 nM; on A2A receptor (setting [2]), 56 nM.

These data come from patent US10995101B2, “2-oxo-thiazole derivatives as A2A inhibitors and compounds for use in the treatment of cancers” (iTeos Therapeutics SA, priority 2017, dated 2021).
